Laboratory results published in ChEMBL document CHEMBL1649294, “Susceptibilities of 23 Desulfovibrio isolates from humans” (2009).
In brackets after ≈: the same amount, converted by molar mass.

How the values were obtained:
Type in all cases: functional
[1] = tested on: Desulfovibrio fairfieldensis; assay: Antimicrobial activity against Desulfovibrio fairfieldensis in presence of Sulbactam by Etest method
Desulfovibrio sp. [2] = assay: Antimicrobial activity against Desulfovibrio sp. in presence of Sulbactam by Etest method
Desulfovibrio sp. [3] = assay: Antimicrobial activity against Desulfovibrio sp. by Etest method
[4] = tested on: Desulfovibrio fairfieldensis; assay: Antimicrobial activity against Desulfovibrio fairfieldensis by Etest method
[5] = tested on: Desulfovibrio desulfuricans; assay: Antimicrobial activity against Desulfovibrio desulfuricans Essex 6 by Etest method
[6] = tested on: Desulfovibrio desulfuricans; assay: Antimicrobial activity against Desulfovibrio desulfuricans MB by Etest method
Desulfovibrio piger [7] = assay: Antimicrobial activity against Desulfovibrio piger by Etest method
[8] = tested on: Desulfovibrio desulfuricans; assay: Antimicrobial activity against Desulfovibrio desulfuricans Essex 6 in presence of Sulbactam by Etest method
[9] = tested on: Desulfovibrio desulfuricans; assay: Antimicrobial activity against Desulfovibrio desulfuricans MB in presence of Sulbactam by Etest method
Desulfovibrio piger [10] = assay: Antimicrobial activity against Desulfovibrio piger in presence of Sulbactam by Etest method
Desulfovibrio sp. [11] = assay: Antimicrobial activity against Desulfovibrio sp. in presence of Tazobactam by Etest method
[12] = tested on: Desulfovibrio fairfieldensis; assay: Antimicrobial activity against Desulfovibrio fairfieldensis in presence of Tazobactam by Etest method
[13] = tested on: Desulfovibrio desulfuricans; assay: Antimicrobial activity against Desulfovibrio desulfuricans Essex 6 in presence of Tazobactam by Etest method
[14] = tested on: Desulfovibrio desulfuricans; assay: Antimicrobial activity against Desulfovibrio desulfuricans MB in presence of Tazobactam by Etest method
Desulfovibrio piger [15] = assay: Antimicrobial activity against Desulfovibrio piger in presence of Tazobactam by Etest method

| MIC [1] [µg/mL] | MIC (Desulfovibrio sp. [2]) [µg/mL] | MIC50 (Desulfovibrio sp. [2]) [µg/mL] | MIC90 (Desulfovibrio sp. [2]) [µg/mL] | MIC50 (Desulfovibrio sp. [3]) [µg/mL] | MIC90 (Desulfovibrio sp. [3]) [µg/mL] | MIC [4] [µg/mL] | MIC [5] [µg/mL] | MIC [6] [µg/mL] | MIC (Desulfovibrio piger [7]) [µg/mL] | MIC [8] [µg/mL] | MIC [9] [µg/mL] | MIC (Desulfovibrio piger [10]) [µg/mL] | MIC (Desulfovibrio sp. [3]) [µg/mL] | MIC50 (Desulfovibrio sp. [11]) [µg/mL] | MIC90 (Desulfovibrio sp. [11]) [µg/mL] | MIC [12] [µg/mL] | MIC [13] [µg/mL] | MIC [14] [µg/mL] | MIC (Desulfovibrio piger [15]) [µg/mL] | Structure (SMILES) |
| --- | --- | --- | --- | --- | --- | --- | --- | --- | --- | --- | --- | --- | --- | --- | --- | --- | --- | --- | --- | --- |
| 4 | 0.06 | 0.38 | 6 | 0.75 (≈ 2.15 µM) | 8 (≈ 22.9 µM) | 4 (≈ 11.4 µM) | 0.19 (≈ 0.544 µM) | 0.19 (≈ 0.544 µM) | 12 (≈ 34.3 µM) | 0.125 | 0.064 | 0.5 |  |  |  |  |  |  |  | CC1(C)S[C@@H]2[C@H](NC(=O)[C@H](N)c3ccccc3)C(=O)N2[C@H]1C(=O)O [AMPICILLIN] |
| > 24 |  | 4 | > 256 | > 256 | > 256 | > 256 | > 16 | 12 (≈ 18.6 µM) | 12 (≈ 18.6 µM) | > 3 | 1 | 1 |  |  |  |  |  |  |  | CCN1CCN(C(=O)N[C@@H](C(=O)N[C@@H]2C(=O)N3C(C(=O)O)=C(CSc4nnnn4C)CS[C@H]23)c2ccc(O)cc2)C(=O)C1=O [CEFOPERAZONE] |
|  |  |  |  | 4 (≈ 7.77 µM) | > 256 | > 256 | 0.5 (≈ 0.972 µM) | 0.5 (≈ 0.972 µM) | 0.75 (≈ 1.46 µM) |  |  |  |  |  |  |  |  |  |  | CO/N=C(\C(=O)N[C@@H]1C(=O)N2C(C(=O)[O-])=C(C[n+]3cccc4c3CCC4)CS[C@H]12)c1csc(N)n1 [CEFPIROME] |
|  |  |  |  | 0.5 (≈ 0.681 µM) | 1.5 (≈ 2.04 µM) | 0.5 (≈ 0.681 µM) | 0.38 (≈ 0.518 µM) | 0.38 (≈ 0.518 µM) | 0.016 (≈ 0.0218 µM) |  |  |  |  |  |  |  |  |  |  | CC[C@H]1OC(=O)[C@H](C)[C@@H](O[C@H]2C[C@@](C)(OC)[C@@H](O)[C@H](C)O2)[C@H](C)[C@@H](O[C@@H]2O[C@H](C)C[C@H](N(C)C)[C@H]2O)[C@](C)(O)C[C@@H](C)C(=O)[C@H](C)[C@@H](O)[C@]1(C)O [ERYTHROMYCIN] |
|  |  |  |  | 0.125 (≈ 0.73 µM) | 0.25 (≈ 1.46 µM) | 0.016 (≈ 0.0935 µM) | 0.064 (≈ 0.374 µM) | 0.016 (≈ 0.0935 µM) | 0.032 (≈ 0.187 µM) |  |  |  |  |  |  |  |  |  |  | Cc1ncc([N+](=O)[O-])n1CCO [METRONIDAZOLE] |

Second part, the compound before the results:

| Structure (SMILES) | MIC [1] [µg/mL] | MIC (Desulfovibrio sp. [2]) [µg/mL] | MIC50 (Desulfovibrio sp. [2]) [µg/mL] | MIC90 (Desulfovibrio sp. [2]) [µg/mL] | MIC50 (Desulfovibrio sp. [3]) [µg/mL] | MIC90 (Desulfovibrio sp. [3]) [µg/mL] | MIC [4] [µg/mL] | MIC [5] [µg/mL] | MIC [6] [µg/mL] | MIC (Desulfovibrio piger [7]) [µg/mL] | MIC [8] [µg/mL] | MIC [9] [µg/mL] | MIC (Desulfovibrio piger [10]) [µg/mL] | MIC (Desulfovibrio sp. [3]) [µg/mL] | MIC50 (Desulfovibrio sp. [11]) [µg/mL] | MIC90 (Desulfovibrio sp. [11]) [µg/mL] | MIC [12] [µg/mL] | MIC [13] [µg/mL] | MIC [14] [µg/mL] | MIC (Desulfovibrio piger [15]) [µg/mL] |
| --- | --- | --- | --- | --- | --- | --- | --- | --- | --- | --- | --- | --- | --- | --- | --- | --- | --- | --- | --- | --- |
| CO/N=C(\C(=O)N[C@@H]1C(=O)N2C(C(=O)O)=C(COC(C)=O)CS[C@H]12)c1csc(N)n1 [CEFOTAXIME] |  |  |  |  | 1.5 (≈ 3.29 µM) | > 256 | > 0.047 | 0.047 (≈ 0.103 µM) | 0.5 (≈ 1.1 µM) | 1 (≈ 2.2 µM) |  |  |  |  |  |  |  |  |  |  |
| CO[C@@]1(NC(=O)Cc2cccs2)C(=O)N2C(C(=O)O)=C(COC(N)=O)CS[C@@H]21 [CEFOXITIN] |  |  |  |  | > 256 | > 256 | > 64 | > 256 | > 16 | 16 (≈ 37.4 µM) |  |  |  |  |  |  |  |  |  |  |
| CC(C)(O/N=C(\C(=O)N[C@@H]1C(=O)N2C(C(=O)[O-])=C(C[n+]3ccccc3)CS[C@H]12)c1csc(N)n1)C(=O)O [CEFTAZIDIME] |  |  |  |  | 6 (≈ 11 µM) | > 256 | > 256 | > 3 | 2 (≈ 3.66 µM) | 3 (≈ 5.49 µM) |  |  |  |  |  |  |  |  |  |  |
| CC(=O)OCC1=C(C(=O)O)N2C(=O)[C@@H](NC(=O)Cc3cccs3)[C@H]2SC1 [CEPHALOTHIN] |  |  |  |  | > 256 | > 256 | > 256 | > 3 | 2 (≈ 5.04 µM) | > 96 |  |  |  |  |  |  |  |  |  |  |
| O=C(N[C@H](CO)[C@H](O)c1ccc([N+](=O)[O-])cc1)C(Cl)Cl [CHLORAMPHENICOL] |  |  |  |  | 4 (≈ 12.4 µM) | 8 (≈ 24.8 µM) | 3 (≈ 9.28 µM) | 1.5 (≈ 4.64 µM) | 1.5 (≈ 4.64 µM) | 1.5 (≈ 4.64 µM) |  |  |  | 1.5 (≈ 4.64 µM) |  |  |  |  |  |  |
| O=C(O)c1cn(C2CC2)c2cc(N3CCNCC3)c(F)cc2c1=O [CIPROFLOXACIN] |  |  |  |  | 0.5 (≈ 1.51 µM) | > 32 | > 32 | 0.19 (≈ 0.573 µM) | 0.125 (≈ 0.377 µM) | 0.125 (≈ 0.377 µM) |  |  |  |  |  |  |  |  |  |  |
| CCC[C@@H]1C[C@@H](C(=O)N[C@@H]([C@H]2O[C@H](SC)[C@H](O)[C@@H](O)[C@H]2O)[C@H](C)Cl)N(C)C1 [CLINDAMYCIN] |  |  |  |  | 0.125 (≈ 0.294 µM) | 0.19 (≈ 0.447 µM) | 0.032 (≈ 0.0753 µM) | 0.094 (≈ 0.221 µM) | 0.094 (≈ 0.221 µM) | 0.016 (≈ 0.0376 µM) |  |  |  |  |  |  |  |  |  |  |
| C[C@H]1COc2c(N3CCN(C)CC3)c(F)cc3c(=O)c(C(=O)O)cn1c23.C[C@H]1COc2c(N3CCN(C)CC3)c(F)cc3c(=O)c(C(=O)O)cn1c23.O [LEVOFLOXACIN] |  |  |  |  | 0.75 | > 32 | > 32 | 0.25 | 0.25 | 0.095 |  |  |  |  |  |  |  |  |  |  |
| C[C@@H](O)[C@H]1C(=O)N2C(C(=O)O)=C(S[C@@H]3CN[C@H](C(=O)N(C)C)C3)[C@H](C)[C@H]12 [MEROPENEM] |  |  |  |  | 0.19 (≈ 0.495 µM) | 4 (≈ 10.4 µM) | 2 (≈ 5.22 µM) | 0.064 (≈ 0.167 µM) | 0.023 (≈ 0.06 µM) | 0.032 (≈ 0.0834 µM) |  |  |  |  |  |  |  |  |  |  |
| CN(C)c1ccc(O)c2c1C[C@H]1C[C@H]3[C@H](N(C)C)C(O)=C(C(N)=O)C(=O)[C@@]3(O)C(O)=C1C2=O [MINOCYCLINE] |  |  |  |  | 6 (≈ 13.1 µM) | 24 (≈ 52.5 µM) | 4 (≈ 8.74 µM) | 2 (≈ 4.37 µM) | 3 (≈ 6.56 µM) | 0.19 (≈ 0.415 µM) |  |  |  |  |  |  |  |  |  |  |
| CCN1CCN(C(=O)N[C@@H](C(=O)N[C@@H]2C(=O)N3[C@@H]2SC(C)(C)[C@@H]3C(=O)O)c2ccccc2)C(=O)C1=O [PIPERACILLIN] |  |  |  |  | > 256 | > 256 | > 256 | > 256 | > 32 | > 256 |  |  |  |  | > 256 | > 256 | > 256 | > 16 | 32 | > 256 |
